Earlier results in patent US20060046268A1, “Diagnosis of anemia and optimizing treatment for heart repair” (Australian Stem Cell Centre Ltd., priority 2004, published 2006).

Tested on: renal transplant patients
Details: reversed upon ceasing administration of the drug, Vlahakos et al., Am J Kidney Dis 17:199-205

anemia (impact on function of the hematopoietic system): reversible anemia
SMILES: CCOC(=O)[C@H](CCc1ccccc1)N[C@@H](C)C(=O)N1CCC[C@H]1C(=O)O [Enalapril]
